Values quoted from earlier work as cited in PubChem BioAssay AID1259409 (Chemical Carcinogenesis Research Information System (CCRIS), 2018).

System: rodent chemically induced tumor inhibition, incidence and multiplicity
Assay: CCRIS tumor inhibitor studies

CC(=O)Oc1ccccc1C(=O)O
tumour outcome (control, treated, inhibition, significance) (Carcinogen: 1,2-DIMETHYLHYDRAZINE DIHYDROCHLORIDE, 306-37-6, Dose [Inhibitor]: 0, 10 MG/KG/D IN 0.2 ML OF 5% SODIUM BICARBONATE FOR 1 WK PRIOR +0 AND 1 WK POST CARCINOGEN DOSE (STUDY DURATION: 36 WK), Route [Inhibitor]: SUBCUTANEOUS, Species: RAT, Strain/Sex: SPRAGUE-DAWLEY/MALE, Target Tissue: Type of Lesion: COLON: ADENOCARCINOMA, Dose [Carcinogen]: 30 MG/KG ONCE, Promoter: NONE USED): 50%, 17%, 66%, p<0.05
tumour outcome (control, treated, inhibition, significance) (Carcinogen: 1,2-DIMETHYLHYDRAZINE DIHYDROCHLORIDE, 306-37-6, Dose [Inhibitor]: 0, 50 MG/KG/D IN 0.6 ML OF 5% SODIUM BICARBONATE BEGINNING 4 WK POST CARCINOGEN DOSE AND CONTINUING FOR DURATION OF STUD, Route [Inhibitor]: SUBCUTANEOUS, Species: RAT, Strain/Sex: SPRAGUE-DAWLEY/MALE, Target Tissue: Type of Lesion: COLON: ADENOCARCINOMA, Dose [Carcinogen]: 30 MG/KG ONCE, Promoter: NONE USED): 42%, 42%, 0%, not significant
tumour outcome (control, treated, inhibition, significance) (Carcinogen: 2-AMINO-1-METHYL-6-PHENYLIMIDAZO[4,5-B]PYRIDINE [105650-23-5], Dose [Inhibitor]: 400 PPM IN DIET FOR 4 WK BEGINNING WK PRIOR TO FIRST CARCINOGEN DOSE (STUDY DURATION: 25 WK), Route [Inhibitor]: ORAL, Species: RAT, Strain/Sex: SPRAGUE-DAWLEY/FEMALE, Target Tissue: Type of Lesion: MAMMARY GLAND: FIBROADENOMA OR DUCTAL CARCINOMA, Dose [Carcinogen]: 85 MG/KG BW 2X/WK FOR 4 WK (STUDY DURATION: 25 WK), Promoter: NONE): 67.7%, 50.0%, 26%, not significant
tumour outcome (control, treated, inhibition, significance) (Carcinogen: 2-AMINO-1-METHYL-6-PHENYLIMIDAZO[4,5-B]PYRIDINE, 105650-23-5, Dose [Inhibitor]: 0, 400 PPM IN HIGH FAT DIET FOR 4 WK BEGINNING 1 WK PRIOR TO CARCINOGEN TREATMENT (STUDY DURATION: 25 WK), Route [Inhibitor]: ORAL, Species: RAT, Strain/Sex: SPRAGUE-DAWLEY/FEMALE, Target Tissue: Type of Lesion: MAMMARY GLAND: CARCINOMA, Dose [Carcinogen]: 85 MG/KG BW IN CORN OIL 8 TIMES IN 10 D, Promoter: NONE USED): 21/31 (68%), 14/30 (47%), 31%, not significant
tumour outcome (control, treated, inhibition, significance) (Carcinogen: 2-AMINO-1-METHYL-6-PHENYLIMIDAZO[4,5-B]PYRIDINE, 105650-23-5, Dose [Inhibitor]: 0, 400 PPM IN HIGH FAT DIET FOR 4 WK BEGINNING 1 WK PRIOR TO CARCINOGEN TREATMENT (STUDY DURATION: 25 WK), Route [Inhibitor]: ORAL, Species: RAT, Strain/Sex: SPRAGUE-DAWLEY/FEMALE, Target Tissue: Type of Lesion: MAMMARY GLAND: FIBROADENOMA, Dose [Carcinogen]: 85 MG/KG BW IN CORN OIL 8 TIMES IN 10 D, Promoter: NONE USED): 3/31 (10%), 2/30 (7%), 30%, not significant
tumour outcome (control, treated, inhibition, significance) (Carcinogen: 4-(METHYLNITROSAMINO)-1-(3-PYRIDYL)-1-BUTANONE, 64091-91-4, Dose [Inhibitor]: 0, 32 MG/KG BW BUFFERED ASPIRIN IN DIET FOR DURATION OF STUDY BEGINNING 2 WK PRIOR TO CARCINOGEN TREATMENT (STUDY DURATI, Route [Inhibitor]: ORAL, Species: MOUSE, Strain/Sex: STRAIN-A/FEMALE, Target Tissue: Type of Lesion: LUNG: TUMOR, Dose [Carcinogen]: 9.1 MG/MOUSE (TOTAL DOSE) ADMINISTERED IN DRINKING WATER OVER 7 WK, Promoter: NONE USED): 23/24 (96%), 15/15 (100%), -4%, not significant
tumour outcome (control, treated, inhibition, significance) (Carcinogen: 4-(METHYLNITROSAMINO)-1-(3-PYRIDYL)-1-BUTANONE, 64091-91-4, Dose [Inhibitor]: 0, 32 MG/KG BW NON-BUFFERED ASPIRIN IN DIET FOR DURATION OF STUDY BEGINNING 2 WK PRIOR TO CARCINOGEN TREATMENT (STUDY DU, Route [Inhibitor]: ORAL, Species: MOUSE, Strain/Sex: STRAIN-A/FEMALE, Target Tissue: Type of Lesion: LUNG: TUMOR, Dose [Carcinogen]: 9.1 MG/MOUSE (TOTAL DOSE) ADMINISTERED IN DRINKING WATER OVER 7 WK, Promoter: NONE USED): 23/24 (96%), 14/14 (100%), -4%, not significant
tumour outcome (control, treated, inhibition, significance) (Carcinogen: 4-(METHYLNITROSAMINO)-1-(3-PYRIDYL)-1-BUTANONE, 64091-91-4, Dose [Inhibitor]: 0, 35 MG/KG BW IN DIET FOR DURATION OF STUDY BEGINNING 2 WK PRIOR TO CARCINOGEN TREATMENT (STUDY DURATION: 25 WK), Route [Inhibitor]: ORAL, Species: MOUSE, Strain/Sex: STRAIN-A/FEMALE, Target Tissue: Type of Lesion: LUNG: TUMOR, Dose [Carcinogen]: 9.1 MG/MOUSE (TOTAL DOSE) ADMINISTERED IN DRINKING WATER OVER 7 WK, Promoter: NONE USED): 23/24 (96%), 14/15 (93%), 3%, not significant
tumour outcome (control, treated, inhibition, significance) (Carcinogen: 4-(METHYLNITROSAMINO)-1-(3-PYRIDYL)-1-BUTANONE, 64091-91-4, Dose [Inhibitor]: 0, 73 MMOL/KG BW/D IN DIET FOR DURATION OF STUDY BEGINNING 2 WK PRIOR TO CARCINOGEN TREATMENT (STUDY DURATION: 25 WK), Route [Inhibitor]: ORAL, Species: MOUSE, Strain/Sex: STRAIN-A/FEMALE, Target Tissue: Type of Lesion: LUNG: TUMOR, Dose [Carcinogen]: 2.2 MMOL/KG BW (TOTAL DOSE) ADMINISTERED IN DRINKING WATER FOR 7 WK, Promoter: NONE USED): 29/29 (100%), 25/25 (100%), 0%, not significant
tumour outcome (control, treated, inhibition, significance) (Carcinogen: 4-(METHYLNITROSAMINO)-1-(3-PYRIDYL)-1-BUTANONE, 64091-91-4, Dose [Inhibitor]: 0, 147 MMOL/KG BW/D IN DIETS FOR DURATION OF STUDY BEGINNING 2 WK PRIOR TO CARCINOGEN TREATMENT (STUDY DURATION: 25 WK), Route [Inhibitor]: ORAL, Species: MOUSE, Strain/Sex: STRAIN-A/FEMALE, Target Tissue: Type of Lesion: LUNG:TUMOR, Dose [Carcinogen]: 2.2 MMOL/KG BW (TOTAL DOSE) ADMINISTERED IN DRINKING WATER FOR 7 WK, Promoter: NONE USED): 29/29 (100%), 24/24 (100%), 0%, not significant
tumour outcome (control, treated, inhibition, significance) (Carcinogen: 4-(METHYLNITROSAMINO)-1-(3-PYRIDYL)-1-BUTANONE, 64091-91-4, Dose [Inhibitor]: 0, 294 MG/KG DIET FOR DURATION OF STUDY BEGINNING 2 WK PRIOR TO CARCINOGEN TREATMENT (STUDY DURATION: 25 WK), Route [Inhibitor]: ORAL, Species: MOUSE, Strain/Sex: STRAIN-A/FEMALE, Target Tissue: Type of Lesion: LUNG: TUMOR, Dose [Carcinogen]: 9.1 MG/MOUSE IN DRINKING WATER FOR 7 WK, Promoter: NONE USED): 29/29 (100%), 24/24 (100%), 0%, not significant
tumour outcome (control, treated, inhibition, significance) (Carcinogen: 4-(METHYLNITROSAMINO)-1-(3-PYRIDYL)-1-BUTANONE, 64091-91-4, Dose [Inhibitor]: 0, 294 MMOL/KG BW/D IN DIET FOR DURATION OF STUDY BEGINNING 2 WK PRIOR TO CARCINOGEN TREATMENT (STUDY DURATION: 25 WK), Route [Inhibitor]: ORAL, Species: MOUSE, Strain/Sex: STRAIN-A/FEMALE, Target Tissue: Type of Lesion: LUNG: TUMOR, Dose [Carcinogen]: 2.2 MMOL/KG BW (TOTAL DOSE) ADMINISTERED IN DRINKING WATER FOR 7 WK, Promoter: NONE USED): 29/29 (100%), 24/24 (100%), 0%, not significant
tumour outcome (control, treated, inhibition, significance) (Carcinogen: 4-(METHYLNITROSAMINO)-1-(3-PYRIDYL)-1-BUTANONE, 64091-91-4, Dose [Inhibitor]: 0, 588 MMOL/KG BW/D IN DIET FOR DURATION OF STUDY BEGINNING 2 WK PRIOR TO CARCINOGEN TREATMENT (STUDY DURATION: 25 WK), Route [Inhibitor]: ORAL, Species: MOUSE, Strain/Sex: STRAIN-A/FEMALE, Target Tissue: Type of Lesion: LUNG: TUMOR, Dose [Carcinogen]: 2.2 MMOL/KG BW (TOTAL DOSE) ADMINISTERED IN DRINKING WATER FOR 7 WK, Promoter: NONE USED): 29/29 (100%), 24/24 (100%), 0%, not significant
tumour outcome (control, treated, inhibition, significance) (Carcinogen: 7,12-DIMETHYLBENZ[A]ANTHRACENE, 57-97-6, Dose [Inhibitor]: 0.6% NEUTRALIZED WITH 12 MG SODIUM CARBONATE DAILY (STUDY DURATION: 14 WK), Route [Inhibitor]: ORAL, Species: HAMSTER, Strain/Sex: SYRIAN/FEMALE, MALE, Target Tissue: Type of Lesion: BUCCAL CELLS: EPIDERMOID TUMORS, Dose [Carcinogen]: 0.5% SOLUTION IN MINERAL OIL 3/WK FOR UP TO 14 WK, Promoter: NONE USED): 6.4%, 4.8%, 25%, p<0.1
tumour outcome (control, treated, inhibition, significance) (Carcinogen: AZOXYMETHANE, 25843-45-2, Dose [Inhibitor]: 0, 200 PPM IN DIET BEGINNING 2 WK PRIOR TO CARCINOGEN TREATMENT AND CONTINUING FOR 52 WK (STUDY DURATION: 54 WK), Route [Inhibitor]: ORAL, Species: RAT, Strain/Sex: F344/MALE, Target Tissue: Type of Lesion: COLON: ADENOCARCINOMA, Dose [Carcinogen]: 15 MG/KG BW 1/WK FOR 2 WK, Promoter: NONE USED): 78%, 53%, 32%, p<0.05
tumour outcome (control, treated, inhibition, significance) (Carcinogen: AZOXYMETHANE, 25843-45-2, Dose [Inhibitor]: 0, 250 PPM IN DIET FOR 13 WK BEGINNING 36 WK POST LAST CARCINOGEN DOSE (STUDY DURATION: 49 WK), Route [Inhibitor]: ORAL, Species: RAT, Strain/Sex: F344/MALE, Target Tissue: Type of Lesion: COLON: ADENOMA, Dose [Carcinogen]: 12 MG/KG BW IN 0.9% SALINE TWICE, Promoter: CHOLIC ACID, 81-25-4): 81%, 94%, -16%, not significant
tumour outcome (control, treated, inhibition, significance) (Carcinogen: AZOXYMETHANE, 25843-45-2, Dose [Inhibitor]: 0, 250 PPM IN DIET FOR 13 WK BEGINNING 36 WK POST LAST CARCINOGEN DOSE (STUDY DURATION: 49 WK), Route [Inhibitor]: ORAL, Species: RAT, Strain/Sex: F344/MALE, Target Tissue: Type of Lesion: SMALL INTESTINE: ADENOCARCINOMA, Dose [Carcinogen]: 12 MG/KG BW IN 0.9% SALINE TWICE, Promoter: CHOLIC ACID, 81-25-4): 23%, 19%, 17%, not significant
tumour outcome (control, treated, inhibition, significance) (Carcinogen: AZOXYMETHANE, 25843-45-2, Dose [Inhibitor]: 0, 250 PPM IN DIET FOR 13 WK BEGINNING 36 WK POST LAST CARCINOGEN DOSE (STUDY DURATION: 49 WK), Route [Inhibitor]: ORAL, Species: RAT, Strain/Sex: F344/MALE, Target Tissue: Type of Lesion: SMALL INTESTINE: ADENOMA, Dose [Carcinogen]: 12 MG/KG BW IN 0.9% SALINE TWICE, Promoter: CHOLIC ACID, 81-25-4): 17%, 47%, -176%, p<0.05
